Data reported in patent publication US11540987B2, “Composition with stabilized taste and odor (II)” (SYMRISE AG, priority 2015, dated 2023).

Assay: ABTS-assay, inhibition of radical formation
Assay type: biochemical
Conditions: for IC50: absorption at 734 nm, mean value from at least 2 independent tests
Description: By means of the ABTS-assay the anti-oxidative capacity of 4-hydroxyacetophenone and alpha-tocopherol was compared. 2,2′-azino bis-(3-ethylbenzothiazoline 6-sulfonic acid) (ABTS) was transformed by potassium persulfate into the blue-green radical cation ABTS•^+. Through the addition of 4-hydroxyacetophenone and alpha-tocopherol the radical cations were reduced and discoloration was observed, which was determined photometrically by Absorption at 734 nm. The inhibition of the radical formation of the test substance is calculated by the following formula:
[formula] Wherein the abbreviations have the following meanings: • Atest substance: Absorption of the wells with test substance including 4-hydroxyacetophenone and alpha-tocopherol • Acontrol: Absorption of the wells without test substance
From the inhibition of the radical formation [%] in a series of dilutions of tested samples the IC50 was calculated. This is the concentration at which the radical formation is inhibited by 50%.

Structure (SMILES) | fold higher IC50 value than alpha-tocopherol | IC50 | antioxidant activity compared with alpha-tocopherol (in words)
CC(=O)c1ccc(O)cc1 [4-hydroxyacetophenone] | 10 fold | 262 µM | much weaker antioxidant activity
Cc1c(C)c2c(c(C)c1O)CC[C@@](C)(CCC[C@H](C)CCC[C@H](C)CCCC(C)C)O2 [alpha-tocopherol, reference compound] |  | 26.8 µM | 
